Source: US7728012B2, “Carboxamide compounds and their use as calpain inhibitors” (Abbott GmbH & Co. KG, priority 2006, dated 2010)

Key:
Format in all cases: biochemical
[1] = biological target: T1, cathepsin K activated from recombinant human procathepsin K (Homo sapiens, UniProt P43235); assay: Cathepsin K kinetic fluorescence enzyme inhibition assay; settings: selectivity ratio versus calpain I
T1 construct: purchased Calbiochem 342001; host or cells: E. coli
T1 sequence (P43235 115-329): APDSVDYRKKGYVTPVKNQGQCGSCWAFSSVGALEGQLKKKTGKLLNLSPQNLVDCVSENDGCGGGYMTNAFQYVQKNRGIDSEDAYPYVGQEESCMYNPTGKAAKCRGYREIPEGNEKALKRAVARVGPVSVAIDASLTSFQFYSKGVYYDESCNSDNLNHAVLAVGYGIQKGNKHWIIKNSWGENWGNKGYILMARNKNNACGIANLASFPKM

[2] = biological target: T2, calpain-I isolated from human erythrocytes (Homo sapiens, UniProt P07384); assay: Calpain I kinetic fluorescence enzyme inhibition assay; settings: apparent Ki from IC50 by Cheng-Prussoff; average of 2 to 4 dose-effect plots
T2 construct: calpain-I—isolated from human erythrocytes; purchased Calbiochem 208713; host or cells: human erythrocytes (tissue isolate)
T2 sequence (P07384 1-714): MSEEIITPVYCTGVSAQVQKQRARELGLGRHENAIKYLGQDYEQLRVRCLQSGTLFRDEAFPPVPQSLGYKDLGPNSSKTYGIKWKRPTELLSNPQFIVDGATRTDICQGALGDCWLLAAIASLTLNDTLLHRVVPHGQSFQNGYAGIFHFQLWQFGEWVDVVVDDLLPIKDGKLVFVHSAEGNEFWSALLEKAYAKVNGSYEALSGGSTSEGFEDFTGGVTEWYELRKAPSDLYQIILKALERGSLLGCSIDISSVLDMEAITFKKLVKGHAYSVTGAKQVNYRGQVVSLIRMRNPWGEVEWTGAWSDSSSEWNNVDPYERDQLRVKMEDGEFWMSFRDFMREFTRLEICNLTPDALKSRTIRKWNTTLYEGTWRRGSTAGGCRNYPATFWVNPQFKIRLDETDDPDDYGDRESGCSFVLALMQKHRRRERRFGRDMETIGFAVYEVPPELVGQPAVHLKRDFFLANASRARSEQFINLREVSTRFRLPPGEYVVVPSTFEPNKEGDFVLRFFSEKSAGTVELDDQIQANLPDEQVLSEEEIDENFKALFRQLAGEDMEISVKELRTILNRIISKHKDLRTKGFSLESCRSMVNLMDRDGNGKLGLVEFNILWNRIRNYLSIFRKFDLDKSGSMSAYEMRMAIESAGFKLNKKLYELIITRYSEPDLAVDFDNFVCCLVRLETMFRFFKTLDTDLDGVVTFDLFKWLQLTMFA
T2 sequence (P04632 1-268 partner): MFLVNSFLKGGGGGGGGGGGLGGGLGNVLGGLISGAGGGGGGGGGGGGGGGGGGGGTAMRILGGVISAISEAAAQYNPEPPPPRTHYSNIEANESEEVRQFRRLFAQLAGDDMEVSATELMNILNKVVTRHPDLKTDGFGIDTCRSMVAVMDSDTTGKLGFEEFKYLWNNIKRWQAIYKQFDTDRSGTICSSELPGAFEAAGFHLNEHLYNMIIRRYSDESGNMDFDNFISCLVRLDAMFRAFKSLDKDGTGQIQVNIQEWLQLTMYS

[3] = biological target: T3, cathepsin B isolated from human liver (Homo sapiens, UniProt P07858); assay: Cathepsin B kinetic fluorescence enzyme inhibition assay; settings: selectivity ratio versus calpain I
T3 construct: cathepsin B—isolated from human liver; purchased Calbiochem 219362; host or cells: human liver (tissue isolate)
Outline: (§1)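 Cathepsin B (0.25 nM, human liver) with 100 μM Z-Phe-Arg-AMC; L (1 nM, human liver) with 2 μM Z-Phe-Arg-AMC; S (0.5 nM, recombinant) with 20 μM Z-Val-Val-Arg-AMC. pH 6.0 MES buffer, 2.5 mM L-cysteine, room temperature. Kinetic fluorescence (ex 390/em 460 nm); apparent Ki from IC50 by Cheng-Prusoff.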

[4] = biological target: T4, cathepsin L isolated from human liver (Homo sapiens, UniProt P07711); assay: Cathepsin L kinetic fluorescence enzyme inhibition assay; settings: selectivity ratio versus calpain I
T4 construct: cathepsin L—isolated from human liver; purchased Calbiochem 219402; host or cells: human liver (tissue isolate)
T4 sequence (P07711 114-333): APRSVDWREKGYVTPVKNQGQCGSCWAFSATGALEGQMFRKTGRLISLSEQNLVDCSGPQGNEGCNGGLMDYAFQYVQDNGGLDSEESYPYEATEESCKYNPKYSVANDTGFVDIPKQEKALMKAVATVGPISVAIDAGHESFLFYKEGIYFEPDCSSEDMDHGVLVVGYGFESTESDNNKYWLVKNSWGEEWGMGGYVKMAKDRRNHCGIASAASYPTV
Outline: as §1

[5] = biological target: T5, recombinant human cathepsin S (Homo sapiens, UniProt P25774); assay: Cathepsin S kinetic fluorescence enzyme inhibition assay; settings: selectivity ratio versus calpain I
T5 construct: purchased Calbiochem 219343; host or cells: E. coli
T5 sequence (P25774 115-331): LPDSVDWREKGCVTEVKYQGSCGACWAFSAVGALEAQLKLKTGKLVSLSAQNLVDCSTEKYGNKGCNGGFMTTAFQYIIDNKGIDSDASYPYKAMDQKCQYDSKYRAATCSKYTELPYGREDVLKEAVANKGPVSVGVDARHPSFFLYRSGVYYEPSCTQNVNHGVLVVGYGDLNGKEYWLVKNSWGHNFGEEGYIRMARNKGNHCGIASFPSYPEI
Outline: as §1

| Structure (SMILES) | Sel cat. K (Ki(cathepsin K)/Ki(calpain) ratio) [1] | Ki [2] [nM] | Sel cat. B (Ki(cathepsin B)/Ki(calpain) ratio) [3] | Sel cat. L (Ki(cathepsin L)/Ki(calpain) ratio) [4] | Sel cat. S (Ki(cathepsin S)/Ki(calpain) ratio) [5] |
| --- | --- | --- | --- | --- | --- |
| NC(=O)C(=O)C(Cc1ccccc1)NC(=O)c1cccnc1-n1ccc(-c2cccc3c2OC(F)(F)O3)n1 (stereo not shown) [Example 119, N-[3-Amino-2,3-dioxo-1-(phenylmethyl)propyl]-2-[3-(2,2-difluoro-1,3-benzodioxol-4-yl)-1H-pyrazol-1-yl]pyridine-3-carboxamide] | ++ (Ki(cathepsin K)/Ki(calpain) ratio of ≧30) | ≤ 40 | ++ (Ki(cathepsin B)/Ki(calpain) ratio of ≧30) | ++ (Ki(cathepsin L)/Ki(calpain) ratio of ≧50) | ++ (Ki(cathepsin S)/Ki(calpain) ratio of ≧100) |
| NC(=O)C(=O)C(Cc1ccccc1)NC(=O)c1cccnc1-n1ccc(-c2c(F)ccc(Cl)c2Cl)n1 (stereo not shown) [Example 120, N-[3-Amino-2,3-dioxo-1-(phenylmethyl)propyl]-2-[3-(2,3-dichloro-6-fluorophenyl)-1H-pyrazol-1-yl]pyridine-3-carboxamide] | ++ (Ki(cathepsin K)/Ki(calpain) ratio of ≧30) | ≤ 40 | ++ (Ki(cathepsin B)/Ki(calpain) ratio of ≧30) | + (30≦Ki(cathepsin L)/Ki(calpain)<50) | ++ (Ki(cathepsin S)/Ki(calpain) ratio of ≧100) |
| COc1c(C)cc(C)cc1-c1ccn(-c2ncccc2C(=O)NC(Cc2ccccc2)C(=O)C(N)=O)n1 (stereo not shown) [Example 121, N-[3-Amino-2,3-dioxo-1-(phenylmethyl)propyl]-2-{3-[3,5-dimethyl-2-(methyloxy)phenyl]-1H-pyrazol-1-yl}pyridine-3-carboxamide] | ++ (Ki(cathepsin K)/Ki(calpain) ratio of ≧30) | ≤ 40 | ++ (Ki(cathepsin B)/Ki(calpain) ratio of ≧30) | ++ (Ki(cathepsin L)/Ki(calpain) ratio of ≧50) | ++ (Ki(cathepsin S)/Ki(calpain) ratio of ≧100) |
| NC(=O)C(=O)C(Cc1ccc(F)cc1)NC(=O)c1cccnc1-n1ccc(-c2ccccc2)n1 (stereo not shown) [Example 123, N-{3-Amino-1-[(4-fluorophenyl)methyl]-2,3-dioxopropyl}-2-(3-phenyl-1H-pyrazol-1-yl)pyridine-3-carboxamide] | ++ (Ki(cathepsin K)/Ki(calpain) ratio of ≧30) | ≤ 40 | ++ (Ki(cathepsin B)/Ki(calpain) ratio of ≧30) | ++ (Ki(cathepsin L)/Ki(calpain) ratio of ≧50) | ++ (Ki(cathepsin S)/Ki(calpain) ratio of ≧100) |
| NC(=O)C(=O)C(Cc1ccccc1)NC(=O)c1cccnc1-n1ccc(-c2ccccc2OC(F)(F)F)n1 (stereo not shown) [Example 124, N-[3-Amino-2,3-dioxo-1-(phenylmethyl)propyl]-2-(3-{2-[(trifluoromethyl)oxy]phenyl}-1H-pyrazol-1-yl)pyridine-3-carboxamide] | ++ (Ki(cathepsin K)/Ki(calpain) ratio of ≧30) | ≤ 40 | ++ (Ki(cathepsin B)/Ki(calpain) ratio of ≧30) | ++ (Ki(cathepsin L)/Ki(calpain) ratio of ≧50) | ++ (Ki(cathepsin S)/Ki(calpain) ratio of ≧100) |
| COc1cc(F)ccc1-c1ccn(-c2ncccc2C(=O)NC(Cc2ccccc2)C(=O)C(N)=O)n1 (stereo not shown) [Example 125, N-[3-Amino-2,3-dioxo-1-(phenylmethyl)propyl]-2-{3-[4-fluoro-2-(methyloxy)phenyl]-1H-pyrazol-1-yl}pyridine-3-carboxamide] | ++ (Ki(cathepsin K)/Ki(calpain) ratio of ≧30) | ≤ 40 | ++ (Ki(cathepsin B)/Ki(calpain) ratio of ≧30) | ++ (Ki(cathepsin L)/Ki(calpain) ratio of ≧50) | ++ (Ki(cathepsin S)/Ki(calpain) ratio of ≧100) |
| NC(=O)C(=O)C(Cc1ccc(OCc2ccccc2)cc1)NC(=O)c1cccnc1-n1ccc(-c2ccccc2)n1 (stereo not shown) [Example 127, N-[3-Amino-2,3-dioxo-1-({4-[(phenylmethyl)oxy]phenyl}methyl)propyl]-2-(3-phenyl-1H-pyrazol-1-yl)pyridine-3-carboxamide] | ++ (Ki(cathepsin K)/Ki(calpain) ratio of ≧30) | ≤ 40 | ++ (Ki(cathepsin B)/Ki(calpain) ratio of ≧30) | ++ (Ki(cathepsin L)/Ki(calpain) ratio of ≧50) | ++ (Ki(cathepsin S)/Ki(calpain) ratio of ≧100) |
| COc1ccc(F)cc1-c1ccn(-c2ncccc2C(=O)NC(Cc2ccccc2)C(=O)C(N)=O)n1 (stereo not shown) [Example 130, N-[3-Amino-2,3-dioxo-1-(phenylmethyl)propyl]-2-{3-[5-fluoro-2-(methyloxy)phenyl]-1H-pyrazol-1-yl}pyridine-3-carboxamide] | ++ (Ki(cathepsin K)/Ki(calpain) ratio of ≧30) | ≤ 40 | ++ (Ki(cathepsin B)/Ki(calpain) ratio of ≧30) | ++ (Ki(cathepsin L)/Ki(calpain) ratio of ≧50) | ++ (Ki(cathepsin S)/Ki(calpain) ratio of ≧100) |
| COc1ccc(Cl)cc1-c1ccn(-c2ncccc2C(=O)NC(Cc2ccccc2)C(=O)C(N)=O)n1 (stereo not shown) [Example 131, N-[3-Amino-2,3-dioxo-1-(phenylmethyl)propyl]-2-{3-[5-chloro-2-(methyloxy)phenyl]-1H-pyrazol-1-yl}pyridine-3-carboxamide] | ++ (Ki(cathepsin K)/Ki(calpain) ratio of ≧30) | ≤ 40 | ++ (Ki(cathepsin B)/Ki(calpain) ratio of ≧30) | ++ (Ki(cathepsin L)/Ki(calpain) ratio of ≧50) | ++ (Ki(cathepsin S)/Ki(calpain) ratio of ≧100) |
| NC(=O)C(=O)C(Cc1ccc(OC(F)(F)F)cc1)NC(=O)c1cccnc1-n1ccc(-c2ccc(F)cc2)n1 (stereo not shown) [Example 132, N-[3-Amino-2,3-dioxo-1-({4-[(trifluoromethyl)oxy]phenyl}methyl)propyl]-2-[3-(4-fluorophenyl)-1H-pyrazol-1-yl]pyridine-3-carboxamide] | ++ (Ki(cathepsin K)/Ki(calpain) ratio of ≧30) | 40 to 100 | + (10≦Ki(cathepsin B)/Ki(calpain)<30) | ++ (Ki(cathepsin L)/Ki(calpain) ratio of ≧50) | ++ (Ki(cathepsin S)/Ki(calpain) ratio of ≧100) |
| NC(=O)C(=O)C(Cc1ccc(OC(F)(F)F)cc1)NC(=O)c1cccnc1-n1ccc(-c2ccccc2)n1 (stereo not shown) [Example 133, N-[3-Amino-2,3-dioxo-1-({4-[(trifluoromethyl)oxy]phenyl}methyl)propyl]-2-(3-phenyl-1H-pyrazol-1-yl)pyridine-3-carboxamide] | ++ (Ki(cathepsin K)/Ki(calpain) ratio of ≧30) | 40 to 100 | ++ (Ki(cathepsin B)/Ki(calpain) ratio of ≧30) | ++ (Ki(cathepsin L)/Ki(calpain) ratio of ≧50) | ++ (Ki(cathepsin S)/Ki(calpain) ratio of ≧100) |
